Patent US20240148835A1, “TREATING DISORDERS ASSOCIATED WITH DYRK1A DYSFUNCTION” (UNIVERSITY OF FLORIDA RESEARCH FOUNDATION, INCORPORATED, priority 2021, published 2024)
“Also recorded” adds a separate entry of the source.

Test system: neonatal cHets
Test: Neonatal GSK3 inhibitor SB216763 treatment: cortex mass, isotropic fractionator cell number and density
Type: in vivo, mouse
Experimental: We utilized the previously mentioned neonatal paradigm to inject cHets daily with GSK3 inhibitor SB216763 or vehicle from P0 to P7 (FIG. 25A).
(1-3)IGF-1 was acquired from VWR/Bachem (catalog #H-2468.1000) and dissolved in saline with 0.01% BSA fresh every day. Intraperitoneal injections of 10 mg kg′ (1-3)IGF-1 or vehicle were delivered daily at 8 a.m. starting on P14 and ending on P85. […] The S6K1 inhibitor PF-4708671 was acquired from Medkoo Biosciences (#406432) dissolved in 10% DMSO, 10% tween 80 and 80% water. (1-3)IGF-1 (10 mg kg′) and PF-4708671 (50 mg kg^−1) or vehicle were injected subcutaneously into pups from P0 to P7. Rapamycin was acquired from LC laboratories (R-5000) and dissolved in 4% ethanol, 5% tween-80, and 5% PEG400 in PBS. (1-3)IGF-1 (10 mg kg′) and Rapamycin (1 mg kg′) or vehicle were injected subcutaneously into pups from P0 to P7. SB216763 was acquired from TOCRIS (#1616) and dissolved in 5% DMSO and 0.9% saline in dH20. SB216763 (0.5 mg kg′) was injected subcutaneously into pups from P0 to P7.
Adult animals were perfused with 4% PFA, and pups underwent rapid decapitation and dissection. Brains were fixed in 4% PFA for one week, and then the cortex was dissected out and dissociated in a 7 ml glass tissue homogenizer (Kontes Glass) in dissociation buffer (1% Triton X-100 in 40 mM sodium citrate). 1 ml of nuclei was removed and stained with 1:50 DAPI (Invitrogen, catalog #D3571) before being loaded onto a hemocytometer (Fisher Scientific, catalog #0267110). Per animal, 6 technical replicates of 10 μl nuclei were imaged and counted in the hemocytometer (0.1 μl nuclei counted per technical replicate). After calculating the total cell number per cortex, the number of cells was divided by mg of cortex to obtain density.

[1] = 0.5 mg kg subcutaneous daily P0 to P7

Cn1cc(C2=C(c3ccc(Cl)cc3Cl)C(=O)NC2=O)c2ccccc21 [SB216763]
cellular density [1]: no effect on cellular density; also recorded: unaltered by any genotype or treatment
cortex mass of controls [1]: no effect; also recorded: unaltered by treatment
cortical cell number of cHets [1]: restored the decreased cellular number; also recorded: restored by SB216763 treatment
cortical cell number of controls [1]: no effect on SB216763-treated controls
cortex mass of cHets (0.5 mg kg subcutaneous daily P0 to P7, vs vehicle-treated controls): normalized cortex mass; also recorded: restored by treatment with SB216763
